Measured values published in patent publication US9220680B2, “Compositions and methods for localized drug delivery through mammary papillae” (South Dakota State University, priority 2012, dated 2015).
Values joined by “and” are separate entries in the source; they are usually repeats but may differ in a detail not shown here. Equal entries are not always repeated.

How the values were obtained:
[1] = cited from earlier work
[2] = Transmammary permeation across porcine mammary papilla with and without removal of the keratin plug (Experiments 7-10); type: in vitro ADME
Excerpt: Keratin plug was removed from human and porcine mammary papilla using an alcoholic cotton swab. The swab was gently rubbed on the surface of the mammary papilla. The mammary papilla was observed under the microscope to confirm the removal of the plug from the surface and to confirm that epidermis of the mammary papilla was not damaged during this procedure.
The drug solutions were spiked with radioactive substances. […] Receptor medium was PBS with 7.4 pH.
(§1) Mammary papillae tissues were thawed. Keratin plugs were removed from the mammary papilla tissues using swabs with ethanol. […] The drug solutions were spiked with radioactive substances. […] Receptor medium was PBS with 7.4 pH.
as §1
Mammary papillae tissues were thawed. Keratin plugs were removed from the mammary papilla tissues using swabs with ethanol. […] The drug solutions were spike with radioactive substances. […] Receptor medium was PBS with 7.4 pH.

[3] = In vitro penetration and permeation via excised porcine mammary papilla, Franz diffusion cell (Example 1); type: in vitro ADME
Method: Drug penetration and permeation via mammary papillae was performed in a Franz diffusion cell using excised porcine mammary papilla. […] The transport studies were performed at time points for 6 and 48 hours.
In a separate study to evaluate the drug retention and disposition, the treatment was removed after 6 hours and the study was continued until the 48 hour mark. Samples were withdrawn from the receptor compartment at different time points. At the end of study, the mammary papilla was cut to 2 mm thick cylindrical sections from the top to the base of the tissue and was digested using a tissue solubilizer. The drug concentrations were determined by liquid scintillation counting.
Methods for the preparation of porcine mammary papilla. Freshly excised strips of porcine mammary papilla (6-7 months old animals) were washed with deionized water followed by removal of subcutaneous fatty tissue using a scalpel. Keeping the mammary papilla in the center, 3 cm×3 cm sized specimens of the tissue were excised, subcutaneous fat tissue was removed, and the tissue was frozen at −20° C. until used for the drug penetration and permeation studies.
Breast tissue was mounted between the two compartments of a vertical Franz diffusion cell (FDC) with breast tissue sandwiched between donor and receptor compartments. A mammary papilla was set in upright position inside the donor compartment of Franz diffusion cell. […] Samples were withdrawn from the receptor at different time points for 48 hours to determine drug concentration by radioactive count. At the end of 48 hours, tissue samples were taken for drug content determination. […]
In a second study, the mammary papillae in Franz diffusion cells were treated with the drugs for 48 hours and the permeation was followed through 48 hours. This analysis provided information regarding any saturation from drug treatment for extended periods of time. […]
Extraction of drugs from the mammary papilla. At the end of permeation study, the mammary papilla was removed from Franz diffusion cell and thoroughly washed with deionized water and blotted dried. Approximately 2 mm thick sections of the tissue were taken using a scalpel. These sections were homogenized, the drug was extracted, and the drug concentration was determined by radioactive counts.

[4] = Permeation across human breast skin (Experiments 16-18); type: in vitro ADME
Excerpt: Mammary papillae and skin tissues were thawed. Keratin plugs were removed from the mammary papilla tissues using swabs with ethanol. […] The drug solutions were spiked with radioactive substances. […] Receptor medium was PBS with 7.4 pH. […] Results may be seen in FIG. 41 and Table 20.
Mammary papillae and skin tissues were thawed. Keratin plugs were removed from the mammary papilla tissues using swabs with ethanol. […] The drug solutions were spiked with radioactive substances. […] Receptor medium was PBS with 7.4 pH. […] Results may be seen in FIG. 42 and Table 22. […]

[5] = Transmammary permeation across human mammary papilla with and without removal of the keratin plug (Experiments 12-18); type: in vitro ADME; settings: for lag time / cumulative amount permeated / Drug retention in tissue / Flux: value (SEM); for cumulative amount permeated: 48 hours; for Drug retention in tissue: end of 48 hours; for Increase in permeation across the tissues upon removal of the keratin plugs: human mammary papilla
Excerpt: Mammary papillae tissues were thawed. […] The drug solutions were spiked with radioactive substances. […] Receptor medium was PBS with 7.4 pH. […] Results may be seen in FIG. 37 and Table 13.
Mammary papillae tissues were thawed. […] The drug solutions were spiked with radioactive substances. […] Receptor medium was PBS with 7.4 pH. […] Results may be seen in FIG. 38 and Table 15.
Mammary papillae tissues were thawed. […] The drug solutions were spiked with radioactive substances. […] Receptor medium was PBS with 7.4 pH. […] Results may be seen in FIG. 39 and Table 17.
Mammary papillae tissues were thawed. […] The drug solutions were spiked with radioactive substances. […] Receptor medium was PBS with 7.4 pH. […] Results may be seen in FIG. 40.
Mammary papillae and skin tissues were thawed. […] The drug solutions were spiked with radioactive substances. […] Receptor medium was PBS with 7.4 pH. […] Results may be seen in FIG. 41 and Table 20.
Mammary papillae and skin tissues were thawed. […] The drug solutions were spiked with radioactive substances. […] Receptor medium was PBS with 7.4 pH. […] Results may be seen in FIG. 42 and Table 22.
Mammary papillae tissues were thawed. […] The drug solutions were spiked with radioactive substances. […] Receptor medium was PBS with 7.4 pH. […] Results may be seen in FIG. 43 and Table 24.

[6] = Dye penetration study of mammary papilla, confocal and fluorescence microscopy; type: in vitro ADME, porcine; settings: 12 hours treatment; 2 mm section from middle of papilla; confocal laser scanning microscopy
Method: For dye penetration studies, 10 mM of the dye sulforhodamine B (SRB) in 1:1 of ethanol:phosphate buffer and 0.32 mM of Nile Red (NR) in propylene glycol were applied on the mammary papillae for 12 hours. At the end of the study, the tissue was washed, cut into 2 mm thick sections as described earlier and placed on a glass slide for confocal microscopy study. Confocal images of mammary papilla were taken from approximately […] below the surface of the mammary papilla.
Mammary papillae were treated with each dye for 12 hours. Then, starting from tip, 2 mm thick sections of papillae were taken (FIG. 8). Section B was taken from middle of mammary papilla and studied with confocal laser scanning microscopy. From this 2 mm thick section, xy dimensional images were taken at different depths starting from 0 to 500 μm. Because xy views are taken at different depths (the dimension z), these are xyz images. The upper image is an xyz view after treatment with hydrophilic dye SRB. […] The xz views of the mammary papillae were also analyzed.
Fluorescence Microscopy. To verify the confocal data, cryo-sectioning of mammary papillae was performed after 12 hours treatment with the dyes. […] Sections from various different depths of the papilla and studied by fluorescence microscopy. […]

[7] = excised porcine mammary papilla, saturated solution in ethanol:water (50:50), 48 h, mean ± SEM, n=3
[8] = porcine mammary papilla, end of 48 h, mean ± SEM, n=3
[9] = EST 15 mg/ml, human mammary papilla with keratin plug removal
[10] = EST 15 mg/ml, human mammary papilla without keratin plug removal
[11] = dextran 10 mg/ml, human mammary papilla with keratin plug removal, *Values multiplied by 1000
[12] = dextran 10 mg/ml, human mammary papilla without keratin plug removal, *Values multiplied by 1000
[13] = porcine mammary papilla after keratin plug removal, 48 hours, n=4
[14] = porcine mammary papilla after keratin plug removal, end of 48 hours
[15] = porcine mammary papilla after keratin plug removal, end of 48 hours, n=4

Compound: C[C@]12CC[C@@H]3c4ccc(O)cc4CC[C@H]3[C@@H]1CC[C@@H]2O [EST, estradiol]
- Log P [1]: 3.6
- Change of permeation upon removal of the keratin plugs (in words) ([2]; porcine mammary papilla, donor in 50:50 ethanol:water, 48 hours): increases significantly
- Lag time ([3]; excised porcine mammary papilla, Franz diffusion cell, saturated solution in ethanol:water (50:50), 48 h, mean ± SEM, n=3): 7.07 ± 0.29 h
- Cumulative % permeated [3, 7]: 1.03 ± 0.08%
- Flux × 10^3 [3, 7]: 2.57 ± 0.15 μM · cm^2 · hr^−1
- Permeability coefficient × 10^3 [3, 7]: 0.05 ± 0.002 cm^2 · hr^−1
- cumulative amount permeated [3, 7]: 0.23 ± 0.02 µM
- Cumulative % retained [3, 8]: 4.52 ± 0.59%
- Drug extraction from 2 mm thick mammary papilla sections, Section A (tip) [3, 8]: 5.45 ± 0.49 µM/g
- Drug extraction from 2 mm thick mammary papilla sections, Section B [3, 8]: 3.63 ± 0.26 µM/g
- Drug extraction from 2 mm thick mammary papilla sections, Section C [3, 8]: 2.53 ± 0.31 µM/g
- Drug extraction from 2 mm thick mammary papilla sections, Section D (base) [3, 8]: 1.55 ± 0.53 µM/g
- Permeation across mammary papilla (in words) ([3]; porcine mammary papilla, treatment up to 48 hours): significant EST transport across the mammary papilla
- lag time ([4]; EST 15 mg/ml in 50:50 ethanol:water, human breast skin, value (SEM)): 0.56 (0.22) hours
- cumulative amount permeated ([4]; EST 15 mg/ml, human breast skin, 48 hours, value (SEM)): 2.10 (0.16) μmole
- Drug retention in tissue ([4]; EST 15 mg/ml, human breast skin, end of 48 hours, value (SEM)): 2.94 (0.30) umole/g of tissue
- Flux ([4]; EST 15 mg/ml, human breast skin, value (SEM)): 0.07 (0.01) μmole/cm^2/hour
- lag time ([5]; EST 15 mg/ml in 50:50 ethanol:water, human mammary papilla with keratin plug removal): 2.08 (0.28) hours
- cumulative amount permeated [5, 9]: 2.62 (0.97) μmole
- Drug retention in tissue [5, 9]: 6.25 (2.12) umole/g of tissue
- Flux [5, 9]: 0.09 (0.03) μmole/cm^2/hour
- cumulative amount permeated [5, 10]: 0.58 (0.06) μmole
- Drug retention in tissue [5, 10]: 1.06 (0.04) umole/g of tissue
- Flux [5, 10]: 0.01 (0.00) μmole/cm^2/hour
- lag time [5, 10]: 7.02 (0.94) hours
- Permeation profile via human vs porcine mammary papillae ([5]; after keratin plug removal, 48 hours (Experiment 15)): similar
- Increase in permeation across the tissues upon removal of the keratin plugs [5]: more than 10 fold

Compound: CCN(CC)c1ccc2nc3c4ccccc4c(=O)cc-3oc2c1 [NR, Nile Red]
- Log P [1]: 3.8
- Distribution of dye fluorescence in mammary papilla [6]: observed only in and around the ducts

Compound: CCN(CC)c1ccc2c(-c3ccc(S(=O)(=O)O)cc3S(=O)(=O)[O-])c3ccc(=[N+](CC)CC)cc-3oc2c1 [SRB, sulforhodamine B]
- Log P [1]: −0.74
- Distribution of dye fluorescence in mammary papilla [6]: distribution of the dye in both the ducts and in the surrounding tissue

Compound: dextran
- Increase in permeation upon removal of the keratin plugs ([2]; porcine mammary papilla, 10 mg/ml in 50:50 ethanol:water, 48 hours): approximately 2 folds
- Penetration via human breast skin (in words) ([4]; 48 hrs treatment): no penetration of dextran even with 48 hrs treatment
- lag time ([4]; dextran 10 mg/ml in 1:1 ethanol:water, human breast skin, value (SEM)): 30.15 (3.04) hours
- lag time ([5]; dextran 10 mg/ml in 50:50 ethanol:water, human mammary papilla with keratin plug removal): 9.63 (0.90) hours
- cumulative amount permeated [5, 11]: 119.42 (19.35)* μmole
- Drug retention in tissue [5, 11]: 789.33 (99.11)* umole/g of tissue
- cumulative amount permeated [5, 12]: 16.54 (7.32)* μmole
- Drug retention in tissue [5, 12]: 89.88 (19.26)* umole/g of tissue
- lag time ([5]; dextran 10 mg/ml, human mammary papilla without keratin plug removal): 14.74 (1.41) hours
- Increase in permeation across the tissues upon removal of the keratin plugs [5]: more than 7 fold

Compound: inulin
- Transmammary flux ([2]; porcine mammary papilla): 0.33 μg/sq·cm/h
- lag time ([2]; porcine mammary papilla after keratin plug removal, 10 mg/ml in 50:50 ethanol:water, n=4): 16.7 h and 16.78 h
- Drug permeation (% of applied dose) [2, 13]: 0.37 % of applied dose
- cumulative amt. permeated [2, 13]: 0.0037 µmol
- Amount permeated across the tissue [2, 14]: 18.37 µg
- Amount retaining into the tissue [2, 14]: 41.28 µg
- Drug retention in tissue (% of applied dose) [2, 15]: 0.83 % of applied dose
- Skin retention [2, 15]: 0.023 umole/g of tissue
- Total drug retention in tissue [2, 15]: 0.0083 µmol
- Flux ([2]; porcine mammary papilla after keratin plug removal, n=4): 0.000066 μmole/sq.cm/hr
